The test system of data set [1] is CHO-pSV (gp120−) cells. Kind of data set: Cell cytotoxicity assay (CellTiter Glo), CHO-pSV. Format: cell-based. As to conditions: 14 h incubation; concentrations as high as 67 μM. As to the method: (§1) Wild-type HIV-1 env expressing CHO-env cells and CHO-pSv (env negative isogenic control) were a gift from Dr. Edward Berger (NIH), however, they were developed by Nicholas and coworkers.^55 CHO-pSv cells were grown in DMEM base media described below while CHO-env cells were grown in selection medium, which consists of base medium containing 0.25 μM methotrexate (MTX, Aldrich). *Note: Decrease in envelope expression in CHO-env cells was observed upon several passages and it is recommended to maintain low passage stocks of cells in liquid nitrogen.
(§2) Cell Cytotoxicity Assay (CellTiter Glo)
(§3) ***Note: all incubations and dilutions in CHO-culture media (+MTX for CHO-env)
(§4) ***All incubations performed in 96-well plates (clear bottom, black sides; Costar#3603) in triplicate at 37° C., 5% CO2 in moist environment.
(§5) Confluent (˜80%) T-75 flasks of CHO-env and/or CHO-pSv were washed once with DPBS (3 mL), detached, counted and then centrifuged. […]
(§6) Serial dilutions (1/6) of molecules made in empty 96-well plates using multichannel pipette, and then transferred to plates containing seeded cells (50 μL). […] Luminescence monitored on Biotek Synergy 2 microplate reader.
(§7) % cytotoxicity above background calculated by the following formulas: % CDC=[100−((sample−max kill)/(no molecule−max kill))*100] […]

For data set [2], the system named is CHO-env (gp120+) cells. Kind of data set: Cell cytotoxicity assay (CellTiter Glo), CHO-env. Format: cell-based. As to conditions: 14 h; at 310 nM and 1.85 μM. As to the method:
as §1, §2, §3, §4, §5, §6, §7
For orientation: Cellular ATP, detected with luciferase, serves as a proxy for viable cell number.

SMILES strings stand for the structures.

As to `COc1cccc2c1C(=O)c1c(O)c3c(c(O)c1C2=O)C[C@@](O)(C(=O)CO)C[C@@H]3O[C@H]1C[C@H](N)[C@H](O)[C@H](C)O1` [doxorubicin], the non-specific cytotoxicity entry in data set [1] is “non-specifically toxic”. Besides, the “toxicity at low concentrations” value in data set [2] is listed as “no toxicity was observed”.
